The target of the experiment is unphosphorylated-BTK kinase domain (UP-BTK), GST-tagged human BTK (389-659aa) (Homo sapiens (Human), UniProt Q06187). The experiment in a line: BTK kinase Lanthascreen binding assay. Here is the method:
BTK Kinase Lanthascreen Binding Assay:
A BTK kinase lanthascreen binding assay monitors compound binding to unphosphorylated-BTK kinase domain (UP-BTK), by competing with a fluorescent labeled tracer. […] Data were analyzed using Xlfit™ version 5.3 from ID Business Solutions (Guildford), Microsoft Excel add-in. pIC50 refers to the negative log of the IC50 in molar.
In general terms: In TR-FRET formats the signal depends on donor and acceptor labels being close together.

Setting [1] is: negative log of the IC50 in molar, 60 minutes incubation, 50 nM Tracer 236.
Where [2] appears, read: unphosphorylated-BTK kinase domain, 60 minutes incubation, pIC50 = negative log of the IC50 in molar.

Sequence of unphosphorylated-BTK kinase domain (UP-BTK), GST-tagged human BTK (389-659aa) (Q06187 389-659): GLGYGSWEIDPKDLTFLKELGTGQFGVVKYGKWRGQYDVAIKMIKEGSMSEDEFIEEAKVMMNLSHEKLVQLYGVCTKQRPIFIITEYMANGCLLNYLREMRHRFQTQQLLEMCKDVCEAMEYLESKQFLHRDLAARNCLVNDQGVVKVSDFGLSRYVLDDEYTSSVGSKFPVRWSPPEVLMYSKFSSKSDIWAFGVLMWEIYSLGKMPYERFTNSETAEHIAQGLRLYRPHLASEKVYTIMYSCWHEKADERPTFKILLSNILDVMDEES

Regarding `CNC/C=C/C(=O)N1CCC[C@@H](NC(=O)c2sc3nccc4c3c2NC(=O)N4c2ccc(Oc3ccccc3)cc2C)C1` (single isomer, unassigned) [Example 38, (R,E)-5-(*S)-(2-Methyl-4-phenoxyphenyl)-N-(1-(4-(methylamino)but-2-enoyl)piperidin-3-yl)-4-oxo-4,5-dihydro-3H-1-thia-3,5,8-triazaacenaphthylene-2-carboxamide], the “BTK_I_binding pIC50” value under setting [1] came to 7.3.

`Cc1cc(Oc2ccccc2)ccc1N1C(=O)Nc2c(C(=O)N[C@@H]3CCCN(C)C3)sc3nccc1c23` (single isomer, unassigned) [Example 127, (R)-5-(*S)-(2-Methyl-4-phenoxyphenyl)-N-(1-methylpiperidin-3-yl)-4-oxo-4,5-dihydro-3H-1-thia-3,5,8-triazaacenaphthylene-2-carboxamide]: the “BTK_I_binding pIC50” value under setting [1] is 7.3.

Consider `C=CC(=O)N1CCC[C@@H](NC(=O)c2sc3nccc4c3c2NC(=O)N4c2ccc(Oc3ccccc3)cc2C)C1` (single isomer, unassigned) [Example 87, (R)—N-(1-Acryloylpiperidin-3-yl)-5-(*R)-(2-methyl-4-phenoxyphenyl)-4-oxo-4,5-dihydro-3H-1-thia-3,5,8-triazaacenaphthylene-2-carboxamide], for which the “BTK_I_binding pIC50” value under setting [1] was found to be 6.9.

For `Cc1cc(Oc2ccccc2)ccc1N1C(=O)Nc2c(C(=O)N[C@@H]3CCCOC3)sc3nccc1c23` (single isomer, unassigned) [Example 96, (R)-5-(*S)-(2-Methyl-4-phenoxyphenyl)-4-oxo-N-(tetrahydro-2H-pyran-3-yl)-4,5-dihydro-3H-1-thia-3,5,8-triazaacenaphthylene-2-carboxamide], under setting [1], the “BTK_I_binding pIC50” value amounted to 7.8. Regarding `Cc1cc(Oc2ccccc2)ccc1N1C(=O)Nc2c(C(=O)N[C@@H]3CCCN(C(=O)/C(C#N)=C/C(C)(C)N4CCOCC4)C3)sc3nccc1c23` (single isomer, unassigned) [Example 112, (R,E)-N-(1-(2-Cyano-4-methyl-4-morpholinopent-2-enoyl)piperidin-3-yl)-5-(*R)-(2-methyl-4-phenoxyphenyl)-4-oxo-4,5-dihydro-3H-1-thia-3,5,8-triazaacenaphthylene-2-carboxamide], the “BTK_I_binding pIC50” value under setting [1] came to 6.9. Regarding `Cc1cc(Oc2ccccc2)ccc1N1C(=O)Nc2c(C(=O)N[C@@H]3CCCN(C(=O)/C=C/CN)C3)sc3nccc1c23` (single isomer, unassigned) [Example 511, (R,E)-N-(1-(4-Aminobut-2-enoyl)piperidin-3-yl)-5-(*S)-(2-methyl-4-phenoxyphenyl)-4-oxo-4,5-dihydro-3H-1-thia-3,5,8-triazaacenaphthylene-2-carboxamide], the “BTK_I_binding pIC50” value under setting [2] is reported as 7.8.

Regarding `C=CC(=O)N1C[C@H](NC(=O)c2sc3nccc4c3c2NC(=O)N4c2ccc(Oc3ccccc3)cc2C)[C@H](OC)C1` (relative stereo) [Example 508, N-((3S,4R)-1-Acryloyl-4-methoxypyrrolidin-3-yl)-5-(*S)-(2-methyl-4-phenoxyphenyl)-4-oxo-4,5-dihydro-3H-1-thia-3,5,8-triazaacenaphthylene-2-carboxamide], under setting [2], the “BTK_I_binding pIC50” value is 7.7. Take `C=CC(=O)N1CCC[C@@H](NC(=O)c2sc3nccc4c3c2NC(=O)N4c2cnc(OCC(C)C)cc2C)C1` (single isomer, unassigned) [Example 766, (R)—N-(1-Acryloylpiperidin-3-yl)-5-(*S)-(6-isobutoxy-4-methylpyridin-3-yl)-4-oxo-4,5-dihydro-3H-1-thia-3,5,8-triazaacenaphthylene-2-carboxamide]: the “BTK_I_binding pIC50” value (negative log of the IC50 in molar, 60 minutes incubation with 50 nM Tracer 236) was 8.2. As for `Cc1cc(Oc2ccccc2)ccc1N1C(=O)Nc2c(C(=O)N[C@@H]3CCCNC3)sc3nccc1c23` (single isomer, unassigned) [Example 300, (R)-5-(*R)-(2-methyl-4-phenoxyphenyl)-4-oxo-N-(piperidin-3-yl)-4,5-dihydro-3H-1-thia-3,5,8-triazaacenaphthylene-2-carboxamide], the “BTK_I_binding pIC50” value under setting [2] is recorded as 6.0.

These data come from patent publication US10822348B2, “Inhibitors of Bruton's tyrosine kinase and methods of their use” (JANSSEN PHARMACEUTICA NV, priority 2015, dated 2020).
